Test results published in patent US9284272B2, “Inhibitors of histone methyltransferase G9a” (AbbVie Inc., priority 2014, dated 2016).

Key:
[1] = Cytotoxicity, CellTiter Glo; assay type: cell-based; conditions: human, H929 cells, 5-day proliferation
[2] = tested on: HL-60 acute promyelocytic cells; experiment: Differentiation, proliferation, viability and cell cycle of HL-60 cells, 4 days; assay type: cell-based; conditions: 0-10 μM
Protocol: Cells were then fixed, stained with an anti-CD11b antibody and analyzed by flow cytometry (FIG. 6A).
Cell cycle analysis (PI staining) of HL-60 cells following the 4 day treatment at the indicated concentrations (i.e., 0 μM, 0.1 μM, 0.3 μM, 1 μM, 3 μM, and 10 μM) was also performed (FIG. 6C).

MV4;11 cells [3] = experiment: Combination of G9a inhibitor and ATRA on MV4;11 proliferation (CellTiter Glo); assay type: cell-based, human; conditions: 0, 300 nM or 3 μM Example 7 with 0-100 nM ATRA, 5 days
Protocol: Cellular proliferation was determined by CellTiter Glo assay.

[4] = PK/PD study, plasma and tissue concentrations; assay type: in vivo, SCID/bg mice; conditions: 30 mg/kg/day osmotic mini-pump, samples at 2, 7, 14 days
Excerpt: Specifically, subcutaneous MV4;11 xenografts were implanted in SCID/bg mice and allowed to grow to 200 mm^3. […] In particular, by day 14, dimethylation of lysine 9 of histone H3 in the tumor tissue was reduced by 46 percent as compared to the vehicle.

[5] = Cytotoxicity, CellTiter Glo; assay type: cell-based; conditions: human, LN229 cells, 5-day proliferation
[6] = Cytotoxicity, CellTiter Glo; assay type: cell-based; conditions: human, ZR7350 cells, 7-day proliferation, neural crest derived lines
[7] = Cytotoxicity, CellTiter Glo; assay type: cell-based; conditions: human, THP-1 cells, 5-day proliferation
[8] = Cytotoxicity, CellTiter Glo; assay type: cell-based; conditions: human, 22RV1 cells, 5-day proliferation
[9] = Cytotoxicity, CellTiter Glo; assay type: cell-based; conditions: human, SKBR3 cells, 5-day proliferation
[10] = Cytotoxicity, CellTiter Glo; assay type: cell-based; conditions: human, MV4;11 cells, 5-day proliferation
[11] = Cytotoxicity, CellTiter Glo; assay type: cell-based; conditions: human, Kasume-1 cells, 5-day proliferation
H3K9me2 = H3K9me2 levels by AlphaLISA in HT1080 cells; assay type: cell-based; conditions: 48 h, 0-1,000 nM
[12] = Cytotoxicity, CellTiter Glo; assay type: cell-based; conditions: human, TC-71 cells, 7-day proliferation, neural crest derived lines
MV4;11 cells [13] = experiment: Differentiation, proliferation, viability and cell cycle of MV4;11 cells, 14 days; assay type: cell-based, human
Excerpt: MV4;11 cells are a human acute myelocytic leukemia (AML) cell line derived from a human with leukemia.

[14] = Cytotoxicity, CellTiter Glo; assay type: cell-based; conditions: human, Calu6 cells, 5-day proliferation
in vitro = assay type: cell-based; conditions: PH-1; 7-day proliferation, neural crest derived lines; read-out: IC50 cytotoxicity

COc1cc2c(cc1OCCCN1CCCC1)N=C(N)C21CCC1 [Example 7, 5′-methoxy-6′-(3-(pyrrolidin-1-yl)propoxy)spiro[cyclobutane-1,3′-indol]-2′-amine]
IC50 at 5 day [1]: > 10 µM
cell cycle analysis (PI staining) [2]: increased numbers of cells were in the G1 phase
cell proliferation (CellTiter Glo) [2]: inhibited proliferation of the HL-60 cells
cell viability (trypan blue exclusion) [2]: largely unaffected
differentiation (CD11b, flow cytometry) [2]: induced differentiation of the HL-60 cells
MV4;11 proliferation, combination with ATRA (MV4;11 cells [3]): additive effects on MV4;11 proliferation
accumulation in tumor tissue (as well as liver and muscle tissue) [4]: significant accumulation
IC50 at 5 day [5]: > 10 µM
IC50 at 7 day [6]: > 10 µM
IC50 at 5 day [7]: > 10 µM
IC50 at 5 day [8]: > 10 µM
IC50 at 5 day [9]: > 10 µM
IC50 at 5 day [10]: > 10 µM
IC50 at 5 day [11]: > 10 µM
H3K9me2 reduction compared with UNC0638 (H3K9me2): equivalent effects on H3K9me2 reduction
IC50 at 7 day [12]: > 10 µM
MV4;11 cells no longer proliferating (CellTiter Glo) (MV4;11 cells [13]; 3 μM): about 100%
viability at 3 µM (MV4;11 cells [13]; Homo sapiens, MV4-11, 336 h, 3 μM, read-out: viable MV4;11 cells (trypan blue exclusion)): ~20%
cell cycle analysis (PI staining) (MV4;11 cells [13]; MV4;11 cells, 0-3 μM): more cells were observed to be in the subG1/G0 phase
expression of marker CD11b by flow cytometry (differentiation) (MV4;11 cells [13]; MV4;11 cells, 0-3 μM): more cells in the population expressed the marker CD11b
cells positive for CD11b (MV4;11 cells [13]; MV4;11 cells, 3 μM): about 90%
IC50 at 5 day [14]: > 10 µM
IC50 at 7 day (in vitro): > 10 µM
